# Tested on: mouse cortical cultures
# Assay: RNA-seq differential expression (DESeq) against matched vehicle
# Type: cell-based
# Parameters: key to MeanFenamidone Bcl11b / MeanFenamidone Slc12a4 / MeanFenamidone Abca1 / MeanFenamidone Hmox1 / MeanFenamidone Il1rap / MeanFenamidone Cyba / MeanFenamidone Narf / MeanFenamidone Bnip3 / MeanFenamidone Amotl2 / MeanFenamidone Gad2 / MeanFenamidone Vsnl1 / MeanFenamidone Fam178a: DESeq mean of counts over RefSeq exons
# Experimental: Figure 4 Cluster 2 chemicals alter expression of a common set of genes. […] RNA-seq was performed in quadruplicate after treating cortical cultures with fenamidone (10 μM) or pyraclostrobin (0.1 μM) for 24 h (n=3 biological replicates) and compared with matched vehicle controls using DESeq to detect differentially expressed genes, listed in Supplementary Data 4.
# Cultures were treated with the non-cytotoxic dose of each chemical, by exchanging half of the original medium with chemicals at 2 × concentration in prewarmed feeding medium, on DIV 7 for 24 h in 12-well plates at a density of 5 × 10^5 cells per well. RNA was isolated using RNeasy plus mini kit (Cat. #74134, Qiagen). […]. Samples were further assessed for quality using either an Agilent Bioanalyzer 2100 or TapeStation 2200 to obtain a RIN. RIN values exceeding 7 were used for sequencing. RNA samples were used to generate and barcode complementary DNA libraries using the TruSeq RNA Library Preparation Kit at the UNC High Throughput Sequencing Facility. Pools of 24 multiplexed samples were sequenced per lane on an Illumina HiSeq 2500 using 50-bp paired-end reads.
# RNA-seq reads were filtered using TagDust and aligned to the reference mouse genome (mm9) with TopHat using default parameters. Reads aligning to ribosomal RNA genes were removed. Transcript abundance was estimated by computing Reads per kilobase per million mapped reads (RPKM) using RefSeq gene models aggregated by gene symbol. For differential expression analyses, raw counts over RefSeq exons were used, and then were compared across samples using DESeq[62].
smiles,measurement,setting,value
CSC1=N[C@@](C)(c2ccccc2)C(=O)N1Nc1ccccc1 [fenamidone],MeanFenamidone Kirrel,"gene Kirrel, DESeq mean, 4 reps",376.176
same,log2FoldChange Kirrel,"gene Kirrel, vs vehicle, 4 reps",1.966
same,MeanFenamidone Klf3,"gene Klf3, DESeq mean, 4 reps",165.964
same,log2FoldChange Klf3,"gene Klf3, vs vehicle, 4 reps",1.6001
same,MeanFenamidone Lama5,"gene Lama5, DESeq mean, 4 reps",696.831
same,log2FoldChange Lama5,"gene Lama5, vs vehicle, 4 reps",3.008
same,MeanFenamidone Lamc1,"gene Lamc1, DESeq mean, 4 reps",1262.75
same,log2FoldChange Lamc1,"gene Lamc1, vs vehicle, 4 reps",1.942
same,MeanFenamidone Lats2,"gene Lats2, DESeq mean, 4 reps",789.339
same,log2FoldChange Lats2,"gene Lats2, vs vehicle, 4 reps",2.05
same,MeanFenamidone,gene Lgals1,315.526
same,log2FoldChange,gene Lgals1,2.643
same,MeanFenamidone Lgals3,"gene Lgals3, DESeq mean, 4 reps",148.009
same,log2FoldChange Lgals3,"gene Lgals3, vs vehicle, 4 reps",3.47
same,MeanFenamidone Lhfp,"gene Lhfp, DESeq mean, 4 reps",460.237
same,log2FoldChange Lhfp,"gene Lhfp, vs vehicle, 4 reps",1.564
same,MeanFenamidone,gene Lhx6,36.2637
same,log2FoldChange,gene Lhx6,-1.466
same,MeanFenamidone Lif,"gene Lif, DESeq mean, 4 reps",71.2282
same,log2FoldChange Lif,"gene Lif, vs vehicle, 4 reps",2.278
same,MeanFenamidone Lima1,"gene Lima1, DESeq mean, 4 reps",304.711
same,log2FoldChange Lima1,"gene Lima1, vs vehicle, 4 reps",2.122
same,MeanFenamidone Lipa,"gene Lipa, DESeq mean, 4 reps",195.186
same,log2FoldChange Lipa,"gene Lipa, vs vehicle, 4 reps",1.701
same,MeanFenamidone,gene Lpp,386.544
same,log2FoldChange,gene Lpp,2.227
same,MeanFenamidone,gene Lrig1,287.461
same,log2FoldChange,gene Lrig1,1.313
same,MeanFenamidone Lrp2,"gene Lrp2, DESeq mean, 4 reps",218.41
same,log2FoldChange Lrp2,"gene Lrp2, vs vehicle, 4 reps",3.259
same,MeanFenamidone Lrp5,"gene Lrp5, DESeq mean, 4 reps",104.9
same,log2FoldChange Lrp5,"gene Lrp5, vs vehicle, 4 reps",2.141
same,MeanFenamidone Lrrk1,"gene Lrrk1, DESeq mean, 4 reps",150.568
same,log2FoldChange Lrrk1,"gene Lrrk1, vs vehicle, 4 reps",2.538
same,MeanFenamidone Lrrk2,"gene Lrrk2, DESeq mean, 4 reps",55.3056
same,log2FoldChange Lrrk2,"gene Lrrk2, vs vehicle, 4 reps",2.7898
same,MeanFenamidone Lsm11,"gene Lsm11, DESeq mean, 4 reps",253.873
same,log2FoldChange Lsm11,"gene Lsm11, vs vehicle, 4 reps",-1.609
same,MeanFenamidone Lzts1,"gene Lzts1, DESeq mean, 4 reps",28.4823
same,log2FoldChange Lzts1,"gene Lzts1, vs vehicle, 4 reps",-2.067
same,MeanFenamidone Maff,"gene Maff, DESeq mean, 4 reps",142.888
same,log2FoldChange Maff,"gene Maff, vs vehicle, 4 reps",2.5091
same,MeanFenamidone,gene Man2b1,147.398
same,log2FoldChange,gene Man2b1,1.707
same,MeanFenamidone,gene Map9,691.478
same,log2FoldChange,gene Map9,-1.0525
same,MeanFenamidone Mapkapk3,"gene Mapkapk3, DESeq mean, 4 reps",109.426
same,log2FoldChange Mapkapk3,"gene Mapkapk3, vs vehicle, 4 reps",2.329
same,MeanFenamidone Mdk,"gene Mdk, DESeq mean, 4 reps",140.699
same,log2FoldChange Mdk,"gene Mdk, vs vehicle, 4 reps",2.08
same,MeanFenamidone,gene Mdm2,455.963
same,log2FoldChange,gene Mdm2,1.1
same,MeanFenamidone Mllt11,"gene Mllt11, DESeq mean, 4 reps",1306.3
same,log2FoldChange Mllt11,"gene Mllt11, vs vehicle, 4 reps",-1.396
same,MeanFenamidone Mpp6,"gene Mpp6, DESeq mean, 4 reps",437.651
same,log2FoldChange Mpp6,"gene Mpp6, vs vehicle, 4 reps",1.381
same,MeanFenamidone Msn,"gene Msn, DESeq mean, 4 reps",1825.06
same,log2FoldChange Msn,"gene Msn, vs vehicle, 4 reps",2.348
same,MeanFenamidone Mturn,"gene Mturn, DESeq mean, 4 reps",252.358
same,log2FoldChange Mturn,"gene Mturn, vs vehicle, 4 reps",-1.427
same,MeanFenamidone Myh9,"gene Myh9, DESeq mean, 4 reps",944.67
same,log2FoldChange Myh9,"gene Myh9, vs vehicle, 4 reps",2.571
same,MeanFenamidone,gene Myl9,343.782
same,log2FoldChange,gene Myl9,2.6473
same,MeanFenamidone Myl12a,"gene Myl12a, DESeq mean, 4 reps",537.985
same,log2FoldChange Myl12a,"gene Myl12a, vs vehicle, 4 reps",2.298
same,MeanFenamidone,gene Myo9b,246.577
same,log2FoldChange,gene Myo9b,1.347
same,MeanFenamidone Myof,"gene Myof, DESeq mean, 4 reps",104.99
same,log2FoldChange Myof,"gene Myof, vs vehicle, 4 reps",3.761
same,MeanFenamidone Nap1l2,"gene Nap1l2, DESeq mean, 4 reps",81.273
same,log2FoldChange Nap1l2,"gene Nap1l2, vs vehicle, 4 reps",-1.959
same,MeanFenamidone Nap1l3,"gene Nap1l3, DESeq mean, 4 reps",110.395
same,log2FoldChange Nap1l3,"gene Nap1l3, vs vehicle, 4 reps",-1.464
same,MeanFenamidone Narf,"gene Narf, DESeq mean, 4 reps",102.622
same,log2FoldChange Narf,"gene Narf, vs vehicle, 4 reps",-2.14
same,MeanFenamidone,gene Ndrg4,999.172
same,log2FoldChange,gene Ndrg4,-1.28
same,MeanFenamidone Nefl,"gene Nefl, DESeq mean, 4 reps",284.238
same,log2FoldChange Nefl,"gene Nefl, vs vehicle, 4 reps",-1.45
same,MeanFenamidone,gene Neurl1a,95.3821
same,log2FoldChange,gene Neurl1a,-1.321
same,MeanFenamidone Notch1,"gene Notch1, DESeq mean, 4 reps",316.63
same,log2FoldChange Notch1,"gene Notch1, vs vehicle, 4 reps",1.887
same,MeanFenamidone Notch3,"gene Notch3, DESeq mean, 4 reps",258.391
same,log2FoldChange Notch3,"gene Notch3, vs vehicle, 4 reps",2.018
same,MeanFenamidone Npnt,"gene Npnt, DESeq mean, 4 reps",335.437
same,log2FoldChange Npnt,"gene Npnt, vs vehicle, 4 reps",1.337
same,MeanFenamidone,gene Npr2,171.686
same,log2FoldChange,gene Npr2,1.617
same,MeanFenamidone,gene Nrep,2228.26
same,log2FoldChange,gene Nrep,-1.081
same,MeanFenamidone,gene Nrg1,57.9878
same,log2FoldChange,gene Nrg1,2.155
same,MeanFenamidone,gene Nrxn3,100.585
same,log2FoldChange,gene Nrxn3,-1.713
same,MeanFenamidone,gene Nsmf,509.681
same,log2FoldChange,gene Nsmf,-1.17
same,MeanFenamidone Nuak2,"gene Nuak2, DESeq mean, 4 reps",199.356
same,log2FoldChange Nuak2,"gene Nuak2, vs vehicle, 4 reps",1.954
same,MeanFenamidone,gene Nup93,78.3583
same,log2FoldChange,gene Nup93,1.518
same,MeanFenamidone Nxph1,"gene Nxph1, DESeq mean, 4 reps",23.0758
same,log2FoldChange Nxph1,"gene Nxph1, vs vehicle, 4 reps",-2.821
same,MeanFenamidone Nxph2,"gene Nxph2, DESeq mean, 4 reps",12.3649
same,log2FoldChange Nxph2,"gene Nxph2, vs vehicle, 4 reps",-2.898
same,MeanFenamidone P2ry2,"gene P2ry2, DESeq mean, 4 reps",92.6995
same,log2FoldChange P2ry2,"gene P2ry2, vs vehicle, 4 reps",2.7714
same,MeanFenamidone,gene Parp3,104.686
same,log2FoldChange,gene Parp3,1.933
same,MeanFenamidone,gene Pcdh9,219.607
same,log2FoldChange,gene Pcdh9,-1.474
same,MeanFenamidone,gene Pcdh17,217.631
same,log2FoldChange,gene Pcdh17,-1.1203
same,MeanFenamidone Pcdh19,"gene Pcdh19, DESeq mean, 4 reps",219.013
same,log2FoldChange Pcdh19,"gene Pcdh19, vs vehicle, 4 reps",-1.519
same,MeanFenamidone,gene Pcdhb9,20.2277
same,log2FoldChange,gene Pcdhb9,-1.874
same,MeanFenamidone Pcyt1b,"gene Pcyt1b, DESeq mean, 4 reps",228.459
same,log2FoldChange Pcyt1b,"gene Pcyt1b, vs vehicle, 4 reps",-1.515
same,MeanFenamidone Pdlim5,"gene Pdlim5, DESeq mean, 4 reps",799.854
same,log2FoldChange Pdlim5,"gene Pdlim5, vs vehicle, 4 reps",2.0349
same,MeanFenamidone Pgm2l1,"gene Pgm2l1, DESeq mean, 4 reps",972.539
same,log2FoldChange Pgm2l1,"gene Pgm2l1, vs vehicle, 4 reps",-1.841
same,MeanFenamidone Phlda3,"gene Phlda3, DESeq mean, 4 reps",537.092
same,log2FoldChange Phlda3,"gene Phlda3, vs vehicle, 4 reps",1.998
same,MeanFenamidone Phldb2,"gene Phldb2, DESeq mean, 4 reps",121.953
same,log2FoldChange Phldb2,"gene Phldb2, vs vehicle, 4 reps",2.252
same,MeanFenamidone,gene Phyh,85.5792
same,log2FoldChange,gene Phyh,1.618
same,MeanFenamidone Piezo1,"gene Piezo1, DESeq mean, 4 reps",449.998
same,log2FoldChange Piezo1,"gene Piezo1, vs vehicle, 4 reps",2.353
same,MeanFenamidone Plcb3,"gene Plcb3, DESeq mean, 4 reps",85.3651
same,log2FoldChange Plcb3,"gene Plcb3, vs vehicle, 4 reps",2.324
same,MeanFenamidone,gene Plec,505.373
same,log2FoldChange,gene Plec,1.462
same,MeanFenamidone Plekha7,"gene Plekha7, DESeq mean, 4 reps",128.547
same,log2FoldChange Plekha7,"gene Plekha7, vs vehicle, 4 reps",1.951
same,MeanFenamidone Plekhg2,"gene Plekhg2, DESeq mean, 4 reps",436.894
same,log2FoldChange Plekhg2,"gene Plekhg2, vs vehicle, 4 reps",2.353
same,MeanFenamidone Plxnb2,"gene Plxnb2, DESeq mean, 4 reps",1959.53
same,log2FoldChange Plxnb2,"gene Plxnb2, vs vehicle, 4 reps",1.762
same,MeanFenamidone,gene Pnma2,202.102
same,log2FoldChange,gene Pnma2,-1.217
same,MeanFenamidone,gene Ppard,113.665
same,log2FoldChange,gene Ppard,1.493
same,MeanFenamidone Ppm1e,"gene Ppm1e, DESeq mean, 4 reps",435.513
same,log2FoldChange Ppm1e,"gene Ppm1e, vs vehicle, 4 reps",-1.5474
same,MeanFenamidone Pqlc3,"gene Pqlc3, DESeq mean, 4 reps",109.637
same,log2FoldChange Pqlc3,"gene Pqlc3, vs vehicle, 4 reps",2.1113
same,MeanFenamidone Prkcg,"gene Prkcg, DESeq mean, 4 reps",26.526
same,log2FoldChange Prkcg,"gene Prkcg, vs vehicle, 4 reps",-1.929
same,MeanFenamidone,gene Prkcz,141.39
same,log2FoldChange,gene Prkcz,-1.24
same,MeanFenamidone,gene Prrt2,169.168
same,log2FoldChange,gene Prrt2,-1.281
same,MeanFenamidone,gene Prss23,845.081

# From PMC4821887, “Identification of chemicals that mimic transcriptional changes associated with autism, brain aging and neurodegeneration” (Nature Communications, 2016)
